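Exposure lasted 48 hours, with cells grown in 96-well plates and compounds tested at five concentrations. GI50 marks 50% less growth.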 The source made the active and inactive calls. No stated cut-off is given here; in the data, active = GI50 up to about 1.1 µM and inactive = higher.
How the values were obtained:
Assay in all cases: growth of human tumour cells (NCI), 48 h
UACC-257 = system: UACC-257
SF-539 = system: SF-539
HT-29 = system: HT-29
SR = system: SR
UO-31 = system: UO-31
HCT-15 = system: HCT-15
MDA-N = system: MDA-N
MCF7 = system: MCF7
HL-60 = system: HL-60
MDA-MB-435 = system: MDA-MB-435
U-251 = system: U-251
SNB-75 = system: SNB-75
T47D = system: T47D
HCC 2998 = system: HCC 2998
HCT-116 = system: HCT-116
A549 = system: A549
SK-MEL-5 = system: SK-MEL-5
LOX IMVI = system: LOX IMVI
NCI-H460 = system: NCI-H460
ACHN = system: ACHN

For `O=C(O)C(Sc1ccc(Cl)cc1)Sc1ccc(Cl)cc1`, the GI50 (UACC-257) was 44.5 µM (inactive), the GI50 (SF-539) was 39.3 µM (inactive) and the GI50 (HT-29) was 43.3 µM (inactive). For the same compound, the GI50 (SR) was 39.6 µM (inactive), the GI50 (UO-31) was 29.7 µM (inactive) and the GI50 (HCT-15) was 36 µM. The GI50 (MDA-N) was 41.5 µM (inactive), the GI50 (MCF7) was 92.3 µM (inactive) and the GI50 (HL-60) was 33.8 µM (inactive). For the same compound, the GI50 (MDA-MB-435) was 43.1 µM (inactive), the GI50 (U-251) was 36.4 µM (inactive) and the GI50 (SNB-75) was 89.7 µM (inactive). For the same compound, the GI50 (T47D) was 64 µM (inactive), the GI50 (HCC 2998) was 25.6 µM (inactive) and the GI50 (HCT-116) was 35.2 µM (inactive). For the same compound, the GI50 (A549) was 29.9 µM (inactive), the GI50 (SK-MEL-5) was 35.6 µM (inactive) and the GI50 (LOX IMVI) was 41.9 µM (inactive). For the same compound, the GI50 (NCI-H460) was 34 µM (inactive) and the GI50 (ACHN) was 47.4 µM (inactive).

With `CC(=O)Nc1ccc(N2C(=O)/C(=C\c3cccc(Oc4ccccc4)c3)S(=O)(=O)C2c2ccccc2)cc1` (stereo not given) the GI50 (UACC-257) was > 100 µM (inactive), the GI50 (SF-539) was 24.3 µM (inactive) and the GI50 (HT-29) was 41.5 µM (inactive). The GI50 (SR) was 31.4 µM (inactive), the GI50 (UO-31) was 29.7 µM (inactive) and the GI50 (HCT-15) was > 100 µM. For the same compound, the GI50 (MDA-N) was 27.2 µM (inactive), the GI50 (MCF7) was 32.2 µM (inactive) and the GI50 (HL-60) was 30.3 µM (inactive). The GI50 (MDA-MB-435) was 60.8 µM (inactive), the GI50 (U-251) was 39.3 µM (inactive) and the GI50 (SNB-75) was 81.3 µM (inactive). For the same compound, the GI50 (T47D) was 35.9 µM (inactive), the GI50 (HCC 2998) was > 100 µM (inactive) and the GI50 (HCT-116) was 37.5 µM (inactive). For the same compound, the GI50 (A549) was > 100 µM (inactive), the GI50 (SK-MEL-5) was 57.5 µM (inactive) and the GI50 (LOX IMVI) was 41 µM (inactive). For the same compound, the GI50 (NCI-H460) was > 100 µM (inactive) and the GI50 (ACHN) was 74.1 µM (inactive).

With `COc1cc2c(/C=C3/C(=O)N(C)c4ccccc43)c(Cl)[nH]c2cc1C` the GI50 (UACC-257) was 0.169 µM (active), the GI50 (SF-539) was 0.0244 µM (active) and the GI50 (HT-29) was 0.328 µM (active). For the same compound, the GI50 (SR) was 0.274 µM (active), the GI50 (UO-31) was 2.28 µM (inactive) and the GI50 (HCT-15) was 0.13 µM. For the same compound, the GI50 (MDA-N) was 0.0352 µM (active), the GI50 (MCF7) was 0.0895 µM (active) and the GI50 (HL-60) was 0.069 µM (active). The GI50 (MDA-MB-435) was 0.0277 µM (active), the GI50 (U-251) was 0.117 µM (active) and the GI50 (SNB-75) was 0.321 µM (active). For the same compound, the GI50 (T47D) was 1.46 µM (inactive), the GI50 (HCC 2998) was 0.101 µM (active) and the GI50 (HCT-116) was 0.233 µM (active). The GI50 (A549) was 0.361 µM (active), the GI50 (SK-MEL-5) was 0.185 µM (active) and the GI50 (LOX IMVI) was 0.3 µM (active). The GI50 (NCI-H460) was 0.295 µM (active) and the GI50 (ACHN) was 0.51 µM (active).

In the case of `C[C@]12C=CC(=O)C=C1CC[C@@H]1[C@@H]2CC[C@]2(C)OC(=O)CC[C@@H]12` [TESTOLACTONE], the GI50 (UACC-257) is reported as 389 µM (inactive), the GI50 (SF-539) is reported as 454 µM (inactive) and the GI50 (HT-29) is reported as > 493 µM (inactive). The GI50 (SR) was 318 µM (inactive), the GI50 (UO-31) was 444 µM (inactive) and the GI50 (HCT-15) was > 488 µM. For the same compound, the GI50 (MDA-N) was > 500 µM (inactive), the GI50 (MCF7) was 457 µM (inactive) and the GI50 (HL-60) was 310 µM (inactive). The GI50 (MDA-MB-435) was > 500 µM (inactive), the GI50 (U-251) was > 500 µM (inactive) and the GI50 (SNB-75) was 292 µM (inactive). For the same compound, the GI50 (T47D) was > 337 µM (inactive), the GI50 (HCC 2998) was 372 µM (inactive) and the GI50 (HCT-116) was > 466 µM (inactive). The GI50 (A549) was 447 µM (inactive), the GI50 (SK-MEL-5) was 429 µM (inactive) and the GI50 (LOX IMVI) was > 492 µM (inactive). For the same compound, the GI50 (NCI-H460) was 484 µM (inactive) and the GI50 (ACHN) was 453 µM (inactive).
